Results from ChEMBL document CHEMBL1201862, “PubChem BioAssay data set” (2004).
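Following 48 hours of exposure in 96-well plates, responses at five concentrations were used to interpolate endpoints linearly. GI50 = concentration required for 50% inhibition of growth.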 Active and inactive are the calls of the source. Cut-off read from the data, not from the text of the source: active = GI50 up to about 1.1 µM and inactive = higher.

Assays:
Experiment in all cases: inhibition of tumour cell growth, NCI panel, 48 h
MDA-N = test system: MDA-N
NCI/ADR-RES = test system: NCI/ADR-RES
CAKI-1 = test system: CAKI-1
SNB-19 = test system: SNB-19
SW-620 = test system: SW-620
MDA-MB-231 = test system: MDA-MB-231
OVCAR-4 = test system: OVCAR-4
OVCAR-8 = test system: OVCAR-8
SK-MEL-28 = test system: SK-MEL-28
CCRF-CEM = test system: CCRF-CEM
SK-OV-3 = test system: SK-OV-3
RXF 393 = test system: RXF 393
MOLT-4 = test system: MOLT-4
UACC-257 = test system: UACC-257
COLO 205 = test system: COLO 205
Hs-578T = test system: Hs-578T
HCC 2998 = test system: HCC 2998
LOX IMVI = test system: LOX IMVI
RPMI-8226 = test system: RPMI-8226
SK-MEL-2 = test system: SK-MEL-2

Row | SMILES | GI50 (MDA-N) | GI50 (NCI/ADR-RES) | GI50 (CAKI-1) | GI50 (SNB-19) | GI50 (SW-620) | GI50 (MDA-MB-231) | GI50 (OVCAR-4) | GI50 (OVCAR-8) | GI50 (SK-MEL-28) | GI50 (CCRF-CEM) | GI50 (SK-OV-3) | GI50 (RXF 393) | GI50 (MOLT-4) | GI50 (UACC-257) | GI50 (COLO 205) | GI50 (Hs-578T) | GI50 (HCC 2998) | GI50 (LOX IMVI) | GI50 (RPMI-8226) | GI50 (SK-MEL-2)
1 | [O-][S+](c1ccccc1)c1ccc(/N=N/O)nc1 (configuration not stated) | > 100 µM (inactive) | > 100 µM (inactive) | > 100 µM (inactive) | > 100 µM (inactive) | > 100 µM (inactive) | > 100 µM (inactive) | > 100 µM (inactive) | > 100 µM (inactive) | > 100 µM (inactive) | > 100 µM (inactive) | > 100 µM (inactive) | 0.213 µM (active) | > 100 µM (inactive) | > 100 µM (inactive) | > 100 µM (inactive) | > 100 µM (inactive) |  |  |  | 
2 | O=S(=O)(c1cc(Cl)ccc1Cl)N1CCN(c2cccc(Cl)c2)CC1 | 59.2 µM (inactive) |  | > 100 µM (inactive) | > 100 µM (inactive) | > 100 µM (inactive) | > 100 µM (inactive) | > 100 µM (inactive) | > 100 µM (inactive) | > 100 µM (inactive) | > 100 µM (inactive) |  | > 100 µM (inactive) | > 100 µM (inactive) | > 100 µM (inactive) |  | > 100 µM (inactive) | > 100 µM (inactive) | > 100 µM (inactive) | > 100 µM (inactive) | 
3 | O=S1(=O)Cc2ccc3c4c2-c2c(ccc5ccc(c-4c25)CS(=O)(=O)C3)C1 | > 100 µM (inactive) | > 100 µM (inactive) |  | > 100 µM (inactive) | 71 µM (inactive) | > 100 µM (inactive) | > 100 µM (inactive) | 90.2 µM (inactive) | > 100 µM (inactive) |  | > 100 µM (inactive) |  | 23.1 µM (inactive) | > 100 µM (inactive) |  | > 100 µM (inactive) | > 100 µM (inactive) | 44.6 µM (inactive) | 20 µM (inactive) | > 100 µM (inactive)
4 | COC(=O)[C@]12CSC[C@H]1C[C@H](c1cccc3ccccc13)N2 | > 100 µM (inactive) | > 100 µM (inactive) | > 100 µM (inactive) | > 100 µM (inactive) | > 100 µM (inactive) | > 100 µM (inactive) |  | > 100 µM (inactive) | > 100 µM (inactive) | 30.2 µM (inactive) | > 100 µM (inactive) |  | 18.2 µM (inactive) | > 100 µM (inactive) | > 100 µM (inactive) |  | > 100 µM (inactive) | 94.6 µM (inactive) | 61.8 µM (inactive) | > 100 µM (inactive)
5 | Cc1occc1C(=S)Nc1ccc(Cl)c(C(=O)OCC(C)C)c1 | 21.1 µM (inactive) | 12.9 µM (inactive) | 21.5 µM (inactive) | 17.1 µM (inactive) | 19.2 µM (inactive) | 16.6 µM (inactive) | 13.3 µM (inactive) | 15.8 µM (inactive) | 16.3 µM (inactive) | 26.5 µM (inactive) | 20.9 µM (inactive) |  | 11.5 µM (inactive) | 17.9 µM (inactive) | 16.3 µM (inactive) | 25.1 µM (inactive) | 18.9 µM (inactive) | 14.9 µM (inactive) | 19.4 µM (inactive) | 19.5 µM (inactive)
6 | CCCCCCSCC/C(C)=N\OC | > 100 µM (inactive) | > 100 µM (inactive) | > 100 µM (inactive) | > 100 µM (inactive) | > 100 µM (inactive) | > 100 µM (inactive) | > 100 µM (inactive) | > 100 µM (inactive) | > 100 µM (inactive) | > 100 µM (inactive) | > 100 µM (inactive) | > 100 µM (inactive) | > 100 µM (inactive) | > 100 µM (inactive) | > 100 µM (inactive) |  | > 100 µM (inactive) | > 100 µM (inactive) | > 100 µM (inactive) | > 100 µM (inactive)
7 | CN(C)CCSS(=O)(=O)O | > 100 µM (inactive) | > 100 µM (inactive) | > 100 µM (inactive) | > 100 µM (inactive) | > 100 µM (inactive) | > 100 µM (inactive) | > 100 µM (inactive) | > 100 µM (inactive) | > 100 µM (inactive) | > 100 µM (inactive) | 29.4 µM (inactive) | > 100 µM (inactive) | > 100 µM (inactive) |  | > 100 µM (inactive) | > 100 µM (inactive) |  | 40.2 µM (inactive) | > 100 µM (inactive) | > 100 µM (inactive)
8 | CC1=NNC(=O)C1C1CC(c2c[nH]c3ccccc23)=NN=C1Cl (configuration not stated) | 54.7 µM (inactive) | > 100 µM (inactive) | > 100 µM (inactive) | 40.9 µM (inactive) | 63.5 µM (inactive) | 46.6 µM (inactive) |  | > 100 µM (inactive) | 87.5 µM (inactive) | 25.8 µM (inactive) | > 100 µM (inactive) | 45.8 µM (inactive) | 24.2 µM (inactive) | > 100 µM (inactive) | 28.1 µM (inactive) | 61.8 µM (inactive) |  | 33.3 µM (inactive) | 23.7 µM (inactive) | > 100 µM (inactive)
9 | SC1=NC2(CCCCCC2)NN1c1ccccc1 | 3.09 µM (inactive) | > 100 µM (inactive) | 0.218 µM (active) | > 41 µM (inactive) | 1.78 µM (inactive) | > 100 µM (inactive) | 2.16 µM (inactive) | 15.5 µM (inactive) | 1.11 µM (active) | 0.0664 µM (active) | > 100 µM (inactive) |  | 0.891 µM (active) | 23.9 µM (inactive) | 0.104 µM (active) | > 100 µM (inactive) | 0.386 µM (active) | 0.82 µM (active) | 0.769 µM (active) | 
10 | CCCN1C(=O)CC(C)N(Cc2ccccc2Cl)C1=S (configuration not stated) | 21.5 µM (inactive) | 21.2 µM (inactive) | 36.9 µM (inactive) | 46.1 µM (inactive) | 30.8 µM (inactive) | 28.7 µM (inactive) | 43.7 µM (inactive) | 27.2 µM (inactive) | 22.9 µM (inactive) | 44.5 µM (inactive) | 31.9 µM (inactive) | 3.9 µM (inactive) | 28.2 µM (inactive) | 17.2 µM (inactive) | 16.9 µM (inactive) | 30.8 µM (inactive) |  | 22.3 µM (inactive) | 24.8 µM (inactive) | 21.7 µM (inactive)
11 | Cc1cc(O)c2c(c1)C(C1OC(CO)C(O)C(O)C1O)c1cc(O)cc(O)c1C2=O (configuration not stated) | > 100 µM (inactive) | > 100 µM (inactive) |  | > 100 µM (inactive) | > 100 µM (inactive) | > 100 µM (inactive) | > 100 µM (inactive) | > 100 µM (inactive) | > 100 µM (inactive) | > 100 µM (inactive) | > 100 µM (inactive) |  | > 100 µM (inactive) | > 100 µM (inactive) | > 100 µM (inactive) |  | > 100 µM (inactive) |  | > 100 µM (inactive) | 
12 | Cc1oc2nc(N(C)C)n3nnnc3c2c1C |  | > 100 µM (inactive) | > 100 µM (inactive) | > 100 µM (inactive) | > 100 µM (inactive) | > 100 µM (inactive) | 48 µM (inactive) | 76 µM (inactive) | > 100 µM (inactive) | > 100 µM (inactive) | 85.7 µM (inactive) | 57.4 µM (inactive) | > 100 µM (inactive) | > 100 µM (inactive) | > 100 µM (inactive) | > 100 µM (inactive) | > 100 µM (inactive) | > 100 µM (inactive) | > 100 µM (inactive) | 
13 | CSC1=N/C(=C\c2ccccc2)C(=O)N1CN1CCOCC1 | > 100 µM (inactive) | 17.1 µM (inactive) |  | 52.5 µM (inactive) | 41.6 µM (inactive) | > 100 µM (inactive) | 28.2 µM (inactive) | 41.1 µM (inactive) | > 100 µM (inactive) | 36 µM (inactive) | > 100 µM (inactive) |  | 64.6 µM (inactive) |  | 54.5 µM (inactive) | 47.5 µM (inactive) |  | 31.6 µM (inactive) | 30.1 µM (inactive) | > 100 µM (inactive)
14 | O=C(O)c1ccccc1-c1ccccc1C(=O)c1ccccc1 | > 100 µM (inactive) | > 100 µM (inactive) | > 100 µM (inactive) | > 100 µM (inactive) | > 100 µM (inactive) | > 100 µM (inactive) | > 100 µM (inactive) | > 100 µM (inactive) | > 100 µM (inactive) | > 100 µM (inactive) | > 100 µM (inactive) | > 100 µM (inactive) | > 100 µM (inactive) | > 100 µM (inactive) | > 100 µM (inactive) | > 100 µM (inactive) |  | > 100 µM (inactive) | > 100 µM (inactive) | > 100 µM (inactive)
15 | Cc1cccc(Nc2cc(Cl)nc(SCC(=O)O)n2)c1C [PIRINIXIC ACID] | > 100 µM (inactive) | > 100 µM (inactive) | > 100 µM (inactive) | > 100 µM (inactive) | > 100 µM (inactive) | > 100 µM (inactive) | > 100 µM (inactive) | > 100 µM (inactive) | > 100 µM (inactive) | > 100 µM (inactive) | > 100 µM (inactive) | > 100 µM (inactive) | 63.1 µM (inactive) | > 100 µM (inactive) | > 100 µM (inactive) | > 100 µM (inactive) |  | > 100 µM (inactive) | 97.7 µM (inactive) | > 100 µM (inactive)
16 | c1ccc([B-]2(c3ccccc3)NCCCO2)cc1 | 42.7 µM (inactive) | 64.1 µM (inactive) | 40.6 µM (inactive) | > 100 µM (inactive) | 49.5 µM (inactive) | 42.5 µM (inactive) | 67.9 µM (inactive) | 70.5 µM (inactive) | 56.8 µM (inactive) | 34.5 µM (inactive) | 85.7 µM (inactive) | 28.8 µM (inactive) | 32.7 µM (inactive) | 49.9 µM (inactive) | 24.9 µM (inactive) | 32.1 µM (inactive) |  | 59.4 µM (inactive) | 37.2 µM (inactive) | 89.9 µM (inactive)
